Experiments:
[1] = system: DLD1 colorectal carcinoma cells; experiment: Live cell imaging assay, cellular uptake of labelled BAMLET; assay type: cell-based, human; conditions: 21 μM, one hour
Experimental: To visualize the cellular uptake of BAMLET, cells were seeded on 6-well ibidi chambers (3.5×10^4 cells/well) overnight and then treated with Janelia Fluor-549 labeled (TOCRIS, Cat #6147) BAMLET mixed with unlabelled BAMLET (21 μM) for one hour at 37° C. The nuclei were counterstained for five minutes with DAPI (Abcam Cat #ab228549, 1:1,000) and uptake of labelled BAMLET was captured with the LSM 900 laser scanning confocal microscope with oil immersion ×63 objectives (Carl Zeiss).

[2] = Giant unilamellar vesicle experiments, membrane response; conditions: 21 μM BAMLET, one hour
Experimental: Giant unilamellar vesicles (GUVs) were formed by hydrogel-assisted swelling according to established protocols^29,30, with modifications previously described^31. Briefly, glass cover slips were sonicated in 1 M NaOH solution (30 minutes), rinsed in Milli-Q water (three times) and further sonicated (30 minutes). Coverslips were plasma etched (1 min) using a BD-20 laboratory corona treater (Electro Technic Products Inc.) to render the surface clean and hydrophilic. A thin film of 1% (w/v) solution of molten ultra-low gelling temperature type IX-A agarose (Sigma) was deposited on the coverslip to provide a reaction bed for GUV formation. The cover slips were placed in AttoFluor® cell chambers (ThermoFisher Scientific). Following, 25 μl of egg phosphatidylcholine (#840051P—Avanti Polar Lipids) in chloroform (25 mg/ml) doped with 4% v/v rhodamine C (1 mg/ml, Sigma) were deposited onto the gelled agarose surface, and the solvent evaporated with nitrogen gas. The lipid-hydrogel film was rehydrated with 200 mM sucrose in PBS, pH 7.2 for one hour and then transferred into 200 mM glucose in PBS, pH 7.2 for sedimentation. GUVs were allowed to settle overnight before seeded on the coverslips for visualization after treatment with 21 μM BAMLET for one hour.

[3] = system: intestinal tumors of Apc^Min/+ mice; experiment: Intestinal cancer model in Apc^Min/+ mice, BAMLET in the drinking water (eight weeks and long term); assay type: in vivo; conditions: vs sham
Experimental: Apc^Min/+ mice were obtained from Jackson Laboratories at about eight weeks of age. Genotyping was performed by PCR analysis of genomic DNA obtained from blood collected from the retro-orbital sinus. Multiple tumors were developed in the small intestine at eight to ten weeks. Mice were acclimated for about two weeks at the local animal facility at BMC, Lund University in order to reduce stress from transportation.
For BAMLET prophylaxis protocol, ten-week-old female Apc^Min/+ mice (n=10 mice per group) were provided daily with BAMLET (20 mg/day in 5 ml PBS) in the drinking water for eight weeks and sacrificed at 18 weeks of age. A similar treatment was used in the survival study groups where mice were observed until 37 weeks of age.
Mice were sacrificed by isoflurane inhalation. Tumor enumeration and sample collection was presented as previously described^28. Tumor numbers and size were determined using a dissecting microscope (Olympus) and evaluated by three blinded investigators.
The opened intestinal segments were spread flat between sheets of filter paper and fixed overnight in 10% neutral buffered formalin. Formalin-fixed sections were transferred to 70% ethanol and stained with 0.2% methylene blue (Sigma, #M9140). Stained sections were rinsed in deionized water and imaged by a dissecting microscope.
Swiss rolls of longitudinally opened intestinal segments were fixed overnight in 10% neutral buffered formalin. Samples were embedded in paraffin and 5 μm thick sections were further processed for histology and immunohistochemistry using antibodies for bovine alpha-Lactalbumin (ThermoFisher Scientific, Cat #A10-128A), β-catenin (CellSignaling, Cat #9562), Cyclin D1 (ThermoFisher Scientific, Cat #SC8396), Ki-67 (BD Biosciences, Cat #556003), VEGF (Abcam, Cat #ab46154), PD-1 (Abcam, Cat #ab214421) and TTF-1 (Abcam, Cat #ab227652) as previously described^28 with slight modifications. Citrate buffer (Dako Target Retrieval Solution, Agilent, Cat #S1699) was used for antigen retrieval for Cyclin D1, Ki-67, VEGF, bovine alpha-Lactalbumin and β-catenin staining. EDTA buffer (Abcam, Cat #ab64216) was used for antigen retrieval for TTF-1 staining. Immunohistochemistry was quantified by ImageJ. For Hematoxylin-Eosin (H&E) staining, Hematoxylin (ThermoFisher Scientific, Cat #7211) was used followed by Eosin-Y (ThermoFisher Scientific, Cat #7111) for counterstaining. Images were captured using the AX10 microscope or the Hamamatzu Nanozoomer scanner (Carl Zeiss) and the DAB-positive beta-catenin antibody fields (4-10) for each organ cross-sections were quantified by ImageJ.

healthy C57BL/6 mice = experiment: BAMLET in healthy C57BL/6 mice: macroscopic inspection and intestinal gene expression analysis
Experimental: Approximately 5 mg of tissue was homogenized using a Tissuelyser (Qiagen) and total RNA was extracted using the RNeasy kit (Qiagen), amplified using a GeneChip 3'IVT Express Kit, hybridized onto Mouse Genome 430 PM array strips, and scanned using the GeneAtlas system (Affymetrix). Data was normalized using Robust Multi Average implemented in the Transcriptome Analysis Console software (v.4.0.1.36, Applied Biosystems, ThermoFisher Scientific). Relative expression was analyzed by ANOVA using the empirical Bayes method, and genes with an absolute fold change >1.5 or 2.0 were considered differentially expressed.
To identify effects on healthy tissues, healthy C57BL/6 mice received BAMLET by oral gavage or in the drinking water (FIG. 6). The effects were evaluated by macroscopic inspection of intestinal tissues and gene expression analysis.

[4] = system: intestinal gene expression; experiment: Transcriptomic analysis of intestinal tissue of Apc^Min/+ mice; assay type: in vivo
Experimental: Approximately 5 mg of tissue was homogenized using a Tissuelyser (Qiagen) and total RNA was extracted using the RNeasy kit (Qiagen), amplified using a GeneChip 3'IVT Express Kit, hybridized onto Mouse Genome 430 PM array strips, and scanned using the GeneAtlas system (Affymetrix). Data was normalized using Robust Multi Average implemented in the Transcriptome Analysis Console software (v.4.0.1.36, Applied Biosystems, ThermoFisher Scientific). Relative expression was analyzed by ANOVA using the empirical Bayes method, and genes with an absolute fold change >1.5 or 2.0 were considered differentially expressed. Heat maps were constructed using Graphpad Prism 9 and differentially expressed genes were analyzed using Ingenuity Pathway Analysis software (IPA, Qiagen).

DLD1 cells = experiment: Cell death assays (Prestoblue and ATPlite); assay type: cell-based, human; conditions: 7, 21 and 35 μM; Prestoblue and ATPlite
Experimental: Two assays were used as an indirect measure of cell death. Luminescence-based ATPlite™ kit (Perkin Elmer) as well as the Prestoblue assay (ThermoFisher Scientific). Cells (5×10^4 cells/well) were seeded in serum-free RPMI-1640 on 96-well plates and treated with BAMLET and alpha1-oleate at different concentration (7, 21, and 35 μM) and incubated for one hour. Afterward, FCS was added at concentration of 5% and the cells were continuously incubated for two hours at 37° C., at the end of which the two kits were used according to manufactures' instructions. Luminescence and fluorescence were measured using a microplate reader (Infinite F200, Tecan). The experiments were performed in triplicate and repeated twice.

[5] = long-term BAMLET in drinking water

BAMLET
uptake of labelled BAMLET [1]: rapidly internalized into the cytoplasm and nuclei | membrane response [2]: triggered rapid blebbing, tubulation and eventual vesicle division | polyp number and polyp size ([3]; 20 mg/day in drinking water, after eight weeks): markedly reduced | loss of body weight [3, 5]: prevented | survival (Kaplan-Meier analysis) [3, 5]: increase in survival | total polyp number and polyp size [3, 5]: reduced | inflammatory or necrotic changes in the intestines or peripheral organs (healthy C57BL/6 mice; gavage or drinking water, vs untreated controls): no evidence of inflammatory or necrotic changes | genes involved in lipid metabolism, glucose metabolism, insulin tolerance and immune regulation (healthy C57BL/6 mice; intestinal tissue): significantly affected | toxic response (gene expression) (healthy C57BL/6 mice; intestinal tissue): no evidence of a toxic response | number of regulated genes (healthy C57BL/6 mice; intestinal tissue, cut-off fold change ≥1.5, P<0.05): about 150 genes | macroscopic appearance of tissues outside the intestinal tract (healthy C57BL/6 mice; mouse, in vivo): No changes in macroscopic appearance | organ weights (healthy C57BL/6 mice; mouse, in vivo): no change in organ weights | intestinal gene expression compared to healthy C57BL/6 mice ([4]; BAMLET treated Apc^Min/+ mice in contrast to sham, including cancer related biofunctions): significantly less affected | number of genes regulated at all time points (shared genes) ([4]; BAMLET treated vs sham, cut-off fold change ≥2.0): 2339 | cancer-related biofunctions ([4]; BAMLET treated vs sham, gavage or drinking water, shared genes): inhibited | Wnt/β-catenin signaling (network analysis of shared genes) ([4]; genes regulated at all time points (2w pt, 5w pt, 8w dw), vs sham): inhibited | Wnt/β-catenin signaling pathway, intestinal gene expression ([4]; long-term follow up, BAMLET in drinking water): inhibited | PD-1 pathway activation (gene expression) ([4]; long-term, BAMLET treated Apc^Min/+ mice compared to healthy C57BL/6 mice): reduced PD-1 pathway activation | PD-1 pathway (gene expression) ([4]; long-term, direct comparison BAMLET treated vs sham): most strongly down-regulated | CD44 and its ligand SPP1 (osteopontin) expression ([4]; tumor microenvironment pathway, BAMLET vs sham): most strongly inhibited genes in the tumor microenvironment pathway | principal component analysis of mRNA profiles ([4]; whole intestinal tissue): formed a cluster near the healthy mice and distant from the sham group | cell viability (DLD1 cells): rapid dose-dependent reduction
